Assay results as given in ChEMBL document CHEMBL1150256, “Kahalalides V-Y isolated from a Hawaiian collection of the sacoglossan mollusk Elysia rufescens” (2008).
The source made the active and inactive calls. No cut-off for these calls is given here.

Experiments:
Mus musculus = test: Antidepressant activity in Swiss Webster mouse at 0 to10 mg/kg, ip by forced swim test; assay type: functional, organism-based
PC-3 = test: Growth inhibition of human PC3 cells; assay type: functional
DU-145 = test: Growth inhibition of human DU145 cells; assay type: functional

| SMILES | Activity (Mus musculus) | growth inhibition (GI) (PC-3) [%] | growth inhibition (GI) (DU-145) [%] |
| --- | --- | --- | --- |
| CC(C)CCC[C@H]1CC(=O)N[C@H](Cc2c[nH]c3ccccc23)C(=O)N2CCC[C@H]2C(=O)N[C@@H](CCCNC(=N)N)C(=O)O1 | inactive | – | – |
| C/C=C1\NC(=O)[C@H](Cc2ccccc2)NC(=O)[C@@H](C(C)C)NC(=O)[C@@H]([C@H](C)CC)NC(=O)[C@H](NC(=O)[C@H](NC(=O)[C@H](CCCN)NC(=O)[C@H]2CCCN2C(=O)[C@H](NC(=O)[C@@H](NC(=O)[C@@H](NC(=O)[C@H](NC(=O)CCCC(C)C)C(C)C)[C@@H](C)O)C(C)C)C(C)C)[C@H](C)CC)[C@H](C)OC(=O)[C@H](C(C)C)NC1=O [KAHALALIDE F] | – | 40 | 40 |
